Data reported in patent US8257949B2, “Self-priming polysialyltransferase” (National Research Council of Canada, priority 2006, dated 2012).

Columns and labels:
Assay type in all cases: biochemical
[1] = biological target: E. coli polysialyltransferase PST-05 (MalE-PST fusion) (Escherichia coli, UniProt Q57269); assay: Sialyltransferase activity by capillary electrophoresis, apparent Km estimation; conditions: CE based assay, 37° C., 50 mM NaHEPES pH 7.5, 10 mM MgCl2, estimated, read-out: apparent Km for GD3-FCHASE
Description: (§1) For production of PST proteins, Cells grown in the presence of IPTG were lysed with an Avestin C5 Emulsiflex cell disrupter (Avestin Ottawa, Ontario) and centrifuged at 1000×g to pellet unbroken cells. MalE-PST fusions were purified using amylose resin as described by the manufacturer (New England Biolabs, Mississauga ON).
(§2) Measurement of sialyltransferase activity—Basic assays were performed at 37° C. in 10-40 μL volumes containing 50 mM NaHEPES pH 7.5, 10 mM MgCl2, 0.1-50 mM CMP-NeuAc, 0.01-5 mM labelled acceptor and various amounts of enzyme. Buffer optimization assays were done with the following buffers: 20 mM citrate-phosphate pH 6.0-8.0, 50 mM Na2PO4 pH 6.5-7.5, 50 mM NaHEPES pH 6.5-8.0, 50 mM TrisHCl pH 7.5-9.0. Metal optimization assays were performed with 10 mM CaCl2, CoCl2, MgCl2, MnCl2, NiCl2, or ZnSO4. For the magnesium titration, endogenous Mg^2+ was removed by addition of EDTA and then dialyzed against 20 mM TrisHCl pH 7.5. Reactions were stopped man equal volume of 50% acetonitrile, 1% sodium dodecylsulphate, 10 mM EDTA. Analysis of actions was done by capillary electrophoresis as previously described. See, e.g., Wakarchuk, W. W. and Cunningham, A. M., Methods Mol. Biol., 213:263-274 (2003)).
(§3) Acceptor synthesis—The GM3/GD3/GT3-FCHASE acceptors were synthesized from Lac-FCHASE on a milligram scale. […]

[2] = biological target: T1, N. meningitidis polysialyltransferase PST-13 (MalE-PST fusion) (Neisseria meningitidis, UniProt Q51281); assay: as above; conditions: CE based assay, 37° C., 50 mM NaHEPES pH 7.5, 10 mM MgCl2, estimated, read-out: apparent Km for GD3-FCHASE
Description: as §1, §2, §3

[3] = biological target: T1, N. meningitidis polysialyltransferase PST-13 (MalE-PST fusion); assay: Acceptor inhibition in kinetic assays; conditions: GD3-FCHASE at concentrations over 2 mM
Description: as §2
Some degradation of the starting material was observed and was more significant at high acceptor concentrations (5 mM).

Substance: NeuAc-α2,8-NeuAc-α2,3-Gal-β1,4-Glc-β-FCHASE [GD3-FCHASE]
- Km [1]: 145 µM
- Km [2]: 120 µM
- acceptor inhibition (productivity of the enzyme) [3]: decreased significantly
